Tests used:
Assay type in all cases: cell-based
[1] = test system: Axinella corrugata cell cultures; assay: Fluorescent assays of DNA and protein content in PHA-treated cultures; settings: 6 replicate comparisons, observed between 6 and 18 hours after treatment
Excerpt: Sponge Cells. Cells were obtained from cryopreserved stocks at Harbor Branch Oceanographic Institution. All cells were derived from Axinella corrugata specimens collected in the waters of Florida, the Bahamas, and the Caribbean Sea, and were cryopreserved according to Pomponi et al. (Pomponi et al. 1997b supra). This sponge is relatively common and easy to collect, amenable to culture efforts, and produces the bioactive compound, stevensine, in vitro (Pomponi et al. 1997b supra). Enriched fractions of dissociated sponge cells were prepared, cryopreserved, and thawed according to previously published methods (Pomponi et al. 1997b supra). Cells were incubated at 22–25° C. in a growth medium consisting of a modified and supplemented commercial formulation (Willoughby and Pomponi 2000 supra). The length of the incubation period was based on my unpublished observation of elevated DNA and protein contents (9%, P=0.034, and 9%, P=0.038, respectively) in PHA-treated cultures, according to fluorescent assays of 6 replicate comparisons (Willoughby and Pomponi 2000 supra). Since the effects were observed between 6 and 18 hours after treatment, cells were cultured for 12-hour periods representing the center point of the period of observed changes. […]

[2] = test system: TIB-155 murine lymphocytes; assay: Microarray analysis of gene expression, PHA-treated vs untreated murine lymphocytes; settings: significant regulation, opposite to sponge cells
Method: Murine Cells. Following the same experimental design as described for sponge cells, TIB-155 murine lymphocytes were cultured in the American Type Culture Collection-specified growth medium (RPMI 1640 with 0.05 mM 2-mercaptoethanol and 10% fetal bovine serum).

[3] = test system: Axinella corrugata cell cultures; assay: PCR verification of cdc10 and calcineurin B expression; settings: two specimens
Method: cDNA Preparation. cDNA was prepared as described in the array experiments, using unlabeled dCTP instead of the α-^33P dCTP. The final product was then diluted 25-fold in water, loaded onto a DNA recovery column (Zymo Research D4001) and washed according to the manufacturer's protocol followed by elution with four consecutive 25-μl aliquots of nuclease free water. The procedure was then repeated for 40-μl aliquots, with a final elution in two aliquots of 20 μl, to produce twice-washed cDNA. Final template solution was prepared from 10 μl of twice-washed cDNA by addition of 80 μl water and precipitation with 30 μl 5M ammonium acetate and 250 μl ethanol at −20° C. for 30 minutes. Samples were centrifuged at 4° C. for 30 minutes at 10,000×g. Pellets were washed twice with 70% ethanol and air-dried for 15 minutes prior to resuspension in 20 μl nuclease free water. For the -RT control reactions, RNA/DNA template amounts were calculated volumetrically, to correspond with the volume of final template used in each reaction. Since some loss of cDNA can be expected for each of the purification steps, the volume of template used in the -RT control reactions likely exceeds that used in the corresponding test reactions, resulting in overestimation of the possible contribution of DNA background signals, acting as a conservative control.
Primers. […]

phytohemagglutinin [PHA]
elevated DNA content in PHA-treated cultures ([1]; P=0.034): 9%
elevated protein content in PHA-treated cultures ([1]; P=0.038): 9%
COUP transcription factor regulation in murine cells [2]: higher signal in the PHA-treated murine cells
cdc10 expression by PCR, PHA treated vs untreated ([3]; FIG. 9A): up-regulation
calcineurin B expression by PCR, PHA treated vs untreated ([3]; FIG. 9B): down-regulation

Source: patent US7135292B2, “Analysis and modification of gene expression in marine invertebrate cells” (Harbor Branch Oceanographic Institution, Inc., priority 2002, dated 2006)
